Patent publication US7317187B2, “Frontal affinity chromatography/MALDI tandem mass spectrometry” (priority 2004, dated 2008)

Columns and labels:
[1] = molecular target: T1, entrapped dihydrofolate reductase (DHFR) (Escherichia coli, UniProt P0ABQ4); experiment: FAC/ESI-MS/MS on monolithic column with entrapped DHFR; assay type: binding, E. coli; conditions: DHFR loaded column (25 pmol initial loading), compounds infused at 50 nM, 2 mM ammonium acetate, ESI/MS/MS detection
T1 construct: made in house

[2] = molecular target: dihydrofolate reductase (DHFR) (Escherichia coli, UniProt P0ABQ4); conditions: cited from earlier work

SMILES	retention (elution) time [1] [min]	Kd [2] [µM]
CC(=O)NC(=O)[C@H](O)[C@@H](O)[C@H](O)[C@H](O)CO [N-acetyl-gluconamide]	1.5	–
Nc1nc2ncc(CNc3ccc(C(=O)N[C@@H](CCC(=O)O)C(=O)O)cc3)nc2c(=O)[nH]1 [folic acid]	3	11
